Reference: article PMC2714474, “Extreme variability in the formation of chlorpyrifos oxon (CPO) in patients poisoned by chlorpyrifos (CPF)” (Biochemical Pharmacology, 2009)

Legend:
[1] = Plasma CPO concentration in CPF-poisoned patients (enzyme-based assay with horse BChE); conditions: median (IQR)
Method: (§2) Serial blood samples stem from patients with acute chlorpyrifos poisoning who were enrolled in two randomised controlled studies (RCT1: ISRCTN02920054 and RCT2: ISRCTN55264358). The studies were performed in Sri Lankan hospitals in Anuradhapura and Polonnaruwa aimed at evaluating the efficacy of oral superactivated charcoal (RCT 1) or pralidoxime (RCT 2) in symptomatic organophosphorus pesticide poisoning. Additional patients were recruited in a prospective cohort study in Nuwara Eliya that was assessing changes in neuromuscular junctional function in organophosphorus pesticide poisoning. […] Treatment consisted of fluid resuscitation and atropine as described [15] and pralidoxime chloride 1 g every 6 for 48 h (RCT1 and Nuwara Eliya cohort), although there was no strict adherence to this regimen. Patients in RCT2 were randomised to receive pralidoxime (2 g pralidoxime chloride loading dose over 20 min, then 0.5 g/h until a maximum of 7 days) or an equal volume of normal saline in addition to the supportive therapy mentioned above. The blood samples were collected between 25 May 2004 and 18 October 2006.
(§3) Blood samples were collected into tubes containing EDTA prior to pralidoxime, then at 1, 4, 12, and 24 h after administration, then once daily until discharge or death. A 0.2 mL blood sample was diluted at the bedside immediately after collection with 4 mL of ice-cold saline and frozen to −23 °C until analysis of AChE activity. The remaining sample was promptly centrifuged and the aspirated plasma frozen at −23 °C until analysis of BChE activity, inhibitory activity, and the concentration of CPF and CPO [15].
CPO was determined by an enzyme-based assay as described recently [9]. In short, CPO was extracted with n-pentane and the reconstituted residue titrated with purified horse BChE, allowing an LOQ of 0.5 nM. The data were corrected for 83% recovery of CPO from plasma [9].

RBC-AChE = target: T1, RBC-AChE (Homo sapiens, UniProt P22303); experiment: Inhibitory activity of patient plasma towards RBC-AChE of a healthy donor; assay type: biochemical; conditions: EDTA-based plasma, absence of pralidoxime
T1 construct: washed red blood cells from a healthy donor; from tissue; host or cells: haemolysate of washed red blood cells from a healthy donor
T1 sequence (P22303 32-617 isoform P22303-2 limits assumed): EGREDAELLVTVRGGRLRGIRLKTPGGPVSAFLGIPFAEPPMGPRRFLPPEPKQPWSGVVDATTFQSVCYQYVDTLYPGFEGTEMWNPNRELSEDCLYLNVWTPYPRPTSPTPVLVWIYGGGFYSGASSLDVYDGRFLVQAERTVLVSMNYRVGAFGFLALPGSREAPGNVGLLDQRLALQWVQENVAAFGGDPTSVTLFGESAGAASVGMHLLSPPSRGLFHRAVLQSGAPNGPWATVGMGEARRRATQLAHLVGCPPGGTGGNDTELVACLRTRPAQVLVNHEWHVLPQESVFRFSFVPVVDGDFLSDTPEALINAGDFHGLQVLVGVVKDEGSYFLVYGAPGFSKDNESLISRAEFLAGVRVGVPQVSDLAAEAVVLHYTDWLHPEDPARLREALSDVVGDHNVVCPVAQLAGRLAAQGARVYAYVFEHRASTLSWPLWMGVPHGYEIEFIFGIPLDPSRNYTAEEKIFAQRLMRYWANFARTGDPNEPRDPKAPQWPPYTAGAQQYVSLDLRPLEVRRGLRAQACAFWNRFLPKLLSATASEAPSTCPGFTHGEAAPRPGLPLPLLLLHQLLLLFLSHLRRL
Method: (§1) Laboratory analyses were conducted in Munich, Germany. AChE activity was determined in native RBCs (AChE in vivo) and after reactivation with supra-therapeutic obidoxime (AChE in vitro) to estimate the reactivatable fraction. These assays were performed using a modified Ellman assay as described. BChE activity and inhibitory activity of plasma were assessed as reported. In short, inhibitory activity of patient plasma was tested by incubating 3 volumes of hemolysate (3 g Hb/100 mL 0.1 M phosphate buffer, pH 7.4; washed red blood cells from a healthy donor) with 1 volume of patient plasma at 37 °C for 60 min.

[2] = system: human red blood cell AChE; experiment: Inhibition kinetics of human red blood cell AChE by CPO; assay type: biochemical; conditions: 11.3 nM AChE, 20 nM CPO
Description: The basis for the calculation of free CPO is the equation given below: [E]/[EP+EPOx]=kr/ki×[P]×(1+KD/[Ox]) E = active enzyme; EP = phosphorylated, but unaged enzyme; EPOx = complex of oxime and phosphorylated, but unaged enzyme; [EP + EPOx] is the reactivatable enzyme = AChE in vitro–AChE in vivo; kr is the first-order reactivation rate constant; KD is the dissociation constant of the complex EPOx; ki is the second-order inhibition rate constant; [P] is the oxon concentration; [Ox] is the oxime concentration.
The fraction of active test AChE upon incubation with known amounts of CPO in plasma samples was calculated discretely in 1-min increments using the following equation: E=E0−ki×(E−EP)×0.15×(CPO0−EP), with E0 and CPO0 being the AChE and total CPO concentration at t = 0 (the factor 0.15 corrects for the fraction not bound reversibly to albumin).

[3] = Ratio CPO/CPF in plasma of CPF-poisoned patients; assay type: in vivo, human
Description: Data were excluded when CPF and/or CPO were below the LOQs or when the time of ingestion or blood sampling was ambiguous. […] In these cases significant post-sampling reactions had to be suspected.

bovine serum albumin [4] = experiment: Hydrolysis / inactivation of CPO by serum albumin; assay type: biochemical; conditions: 20 nM CPO, 1% albumin in inhibition assay, assuming human serum albumin has similar constants as BSA
bovine serum albumin [5] = conditions: pH 7.4 and 37 °C, cited from earlier work
[6] = system: human red blood cell AChE; parameters: method as in PMID 15181665; conditions: cited from earlier work
BChE = conditions: cited from earlier work
[7] = target: T2, RBC acetylcholinesterase (AChE; EC 3.1.1.7) (Homo sapiens, UniProt P22303); experiment: RBC-AChE activity in CPF-poisoned patients (modified Ellman assay); assay type: in vivo
T2 construct: from tissue; host or cells: red blood cells (diluted whole blood) of chlorpyrifos-poisoned patients
T2 sequence (P22303 32-617 isoform P22303-2 limits assumed): as above
Method: as §1

CYP3A4 = conditions: read-out: Km of CPF desulfuration; human hepatic CYP3A4; cited from earlier work
[8] = target: butyrylcholinesterase (BChE; EC 3.1.1.8) (Homo sapiens, UniProt P06276); experiment: BChE activity in plasma of CPF-poisoned patients; assay type: in vivo; conditions: one patient, 70 min after CPF ingestion
Sequence of butyrylcholinesterase (BChE; EC 3.1.1.8) (P06276 29-602): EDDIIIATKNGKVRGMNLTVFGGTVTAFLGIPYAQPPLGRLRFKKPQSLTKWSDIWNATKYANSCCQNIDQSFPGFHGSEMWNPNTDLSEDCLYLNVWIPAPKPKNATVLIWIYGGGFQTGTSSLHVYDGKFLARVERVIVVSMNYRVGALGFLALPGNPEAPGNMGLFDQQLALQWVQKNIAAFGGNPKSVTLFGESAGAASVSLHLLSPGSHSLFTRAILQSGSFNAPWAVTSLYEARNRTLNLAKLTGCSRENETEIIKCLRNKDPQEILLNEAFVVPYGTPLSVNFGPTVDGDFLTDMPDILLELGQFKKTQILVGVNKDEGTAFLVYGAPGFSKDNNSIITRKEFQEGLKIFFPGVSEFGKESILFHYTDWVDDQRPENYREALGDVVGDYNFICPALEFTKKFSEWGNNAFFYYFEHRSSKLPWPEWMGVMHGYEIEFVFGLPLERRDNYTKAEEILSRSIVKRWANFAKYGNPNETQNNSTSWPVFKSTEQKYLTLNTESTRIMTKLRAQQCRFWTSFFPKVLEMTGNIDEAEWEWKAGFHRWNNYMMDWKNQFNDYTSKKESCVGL
Method: as §1

[9] = Plasma CPF concentration in CPF-poisoned patients (HPLC)
Method: as §2, §3
CPF was determined by reversed phase HPLC with detection at 288 nm. Specifically, 0.5 mL plasma was mixed with 10 μL of 500 μM fenitrothion as internal standard to control the extraction yield. The plasma was extracted twice with 1 mL n-hexane for 1 min and residual lipoproteins in the combined hexane phases were precipitated with 50 μL 1 M perchloric acid, followed by centrifugation (10.000 rpm for 1 min). The hexane phase was transferred in a borosilica vial and 10 μL of DMSO was added as keeper. Hexane was evaporated at approximately 40 °C for 30 min in a Speed-Vac-Concentrator. The residue was dissolved in 90 μL of methanol:water (70/30, v/v) and 50 μL were applied to LiChrosphere 100 RP-18, 5 μm, 125 mm × 4 mm (E. Merck, Darmstadt, Germany) and eluted at a flow rate of 1 mL/min by gradient elution. […] Typically, fenitrothion was eluted after 3.3 min and chlorpyrifos after 11.5 min. The lower limit of quantification (LOQ) was 0.1 μM in plasma.

CYP2B6 = conditions: read-out: Km of CPF desulfuration; human hepatic CYP2B6; cited from earlier work
[10] = system: human diethylphosphoryl-AChE; conditions: human red blood cells in vitro, cited from earlier work

Question: With Chlorpyrifos oxon [CPO] as the molecule, how does the CPO plasma concentration ([1]; 0–4 h post CPF poisoning, n=52) read?
Answer: Its CPO plasma concentration is 10.1 (4.5–22.2) nM.

Question: What about the CPO plasma concentration ([1]; 4–8 h post CPF poisoning, n=67) of the same molecule?
Answer: Its CPO plasma concentration is 11.9 (6.5–21.5) nM.

Question: And the CPO plasma concentration ([1]; 8–16 h post CPF poisoning, n=59)?
Answer: Its CPO plasma concentration is 12.7 (5.5–22.5) nM.

Question: And the CPO plasma concentration ([1]; 16–24 h post CPF poisoning, n=30)?
Answer: The CPO plasma concentration was 9.6 (4.1–30.1) nM.

Question: And the CPO plasma concentration ([1]; 24–36 h post CPF poisoning, n=45)?
Answer: Its CPO plasma concentration is 14.1 (4.7–34.5) nM.

Question: And the CPO plasma concentration ([1]; 36–60 h post CPF poisoning, n=41)?
Answer: The CPO plasma concentration was 16.7 (3.4–68.4) nM.

Question: What about the CPO plasma concentration ([1]; 60–84 h post CPF poisoning, n=27) of the same molecule?
Answer: Its CPO plasma concentration is 22.7 (2.2–59.9) nM.

Question: And the CPO plasma concentration ([1]; 84–120 h post CPF poisoning, n=28)?
Answer: The CPO plasma concentration was 7.1 (4.2–40.2) nM.

Question: What about the “fraction of CPO capable of inhibiting AChE” value (RBC-AChE) of the same molecule?
Answer: The value was “roughly 2/3”.

Question: And the “(initial) AChE inhibition rate” value [2]?
Answer: The value was 1.35 nM/min.

Question: And the “CPO/CPF × 1000” value ([3]; 0–4 h post poisoning, median (IQR) of individual sample ratios)?
Answer: Its value is 4.2 (1.9–9.5).

Question: And the “CPO/CPF × 1000” value ([3]; 4–8 h post poisoning, median (IQR))?
Answer: The value was 6.8 (4.3–14.0).

Question: And the “CPO/CPF × 1000” value ([3]; 8–16 h post poisoning, median (IQR))?
Answer: Its value is 17.5 (9.2–31.6).

Question: What about the “CPO/CPF × 1000” value ([3]; 16–24 h post poisoning, median (IQR)) of the same molecule?
Answer: Its value is 14.2 (10.5–42.6).

Question: What about the “CPO/CPF × 1000” value ([3]; 24–36 h post poisoning, median (IQR)) of the same molecule?
Answer: Its value is 28.6 (11.3–44.4).

Question: And the “ratio CPO/CPF, other individuals” value ([3]; 24–120 h, steady-state, high individuals)?
Answer: The value was over 0.05.

Question: And the “ratio CPO/CPF, some individuals” value ([3]; 24–120 h, steady-state, low individuals)?
Answer: The value was “below 0.01”.

Question: What about the “CPO/CPF × 1000” value ([3]; 36–60 h post poisoning, median (IQR)) of the same molecule?
Answer: Its value is 29.2 (14.4–70.7).

Question: What about the “CPO/CPF × 1000” value ([3]; 60–84 h post poisoning, median (IQR)) of the same molecule?
Answer: Its value is 37.3 (12.7–65.3).

Question: What about the “CPO/CPF × 1000” value ([3]; 84–120 h post poisoning, median (IQR)) of the same molecule?
Answer: Its value is 25.0 (15.4–53.6).

Question: And the “ratio of CPO/CPF (apparent steady-state mean)” value ([3]; between 30 and 72 h)?
Answer: The value was 0.03.

Question: What about the “ratio of CPO/CPF (mean)” value ([3]; first few hours after ingestion) of the same molecule?
Answer: The value was 0.005.

Question: What about the “ratio of CPO/CPF” value ([3]; period between 0 and 4 h after ingestion) of the same molecule?
Answer: Its value is “less than 0.005”.

Question: And the “ratio of CPO/CPF on average” value ([3]; period between 24 and 120 h)?
Answer: Its value is about 0.03.

Question: And the “rate of CPO inactivation by albumin” value (bovine serum albumin [4])?
Answer: The value was 0.45 nM/min.

Question: What about the “Vmax of CPO 'hydrolysis' by bovine serum albumin” value (bovine serum albumin [5]) of the same molecule?
Answer: The value was 0.9 nmol/min/mg protein.

Question: And the Km (bovine serum albumin [5]; read-out: Km of CPO 'hydrolysis' by bovine serum albumin)?
Answer: The Km was 400 µM.

Question: And the “ki, second-order inhibition rate constant” value [6]?
Answer: Its value is 100000 M⁻¹ s⁻¹.

Question: What about the “reaction faster with BChE than with AChE” value (BChE) of the same molecule?
Answer: The value was “more than 2 orders of magnitude”.

Question: With `CCOP(=S)(OCC)Oc1nc(Cl)c(Cl)cc1Cl` [CPF, Chlorpyrifos] as the molecule, how does the “AChE activity, of normal” value ([7]; one patient, 70 min after CPF ingestion) read?
Answer: Its value is under 10%.

Question: What about the Km (CYP3A4) of the same molecule?
Answer: The Km was about 30 µM.

Question: What about the “BChE activity, of normal” value [8] of the same molecule?
Answer: The value was “less than 2%”.

Question: And the CPF plasma concentration ([9]; 0–4 h post poisoning, median (interquartile range), n=52)?
Answer: Its CPF plasma concentration is 2.54 (1.6–4.7) μM.

Question: What about the CPF plasma concentration ([9]; 4–8 h post poisoning, median (IQR), n=67) of the same molecule?
Answer: The CPF plasma concentration was 1.65 (0.7–3.2) μM.

Question: What about the CPF plasma concentration ([9]; 8–16 h post poisoning, median (IQR), n=59) of the same molecule?
Answer: Its CPF plasma concentration is 0.70 (0.4–1.2) μM.

Question: And the CPF plasma concentration ([9]; 16–24 h post poisoning, median (IQR), n=30)?
Answer: Its CPF plasma concentration is 0.44 (0.3–1.5) μM.

Question: And the CPF plasma concentration ([9]; 24–36 h post poisoning, median (IQR), n=45)?
Answer: Its CPF plasma concentration is 0.47 (0.3–1.1) μM.

Question: What about the CPF plasma concentration ([9]; 36–60 h post poisoning, median (IQR), n=41) of the same molecule?
Answer: The CPF plasma concentration was 0.66 (0.2–1.0) μM.

Question: And the CPF plasma concentration ([9]; 60–84 h post poisoning, median (IQR), n=27)?
Answer: Its CPF plasma concentration is 0.46 (0.2–0.8) μM.

Question: And the CPF plasma concentration ([9]; 84–120 h post poisoning, median (IQR), n=28)?
Answer: The CPF plasma concentration was 0.39 (0.2–0.7) μM.

Question: And the Km (CYP2B6)?
Answer: Its Km is about 1 µM.

Question: For `CCOP(=O)(OCC)Oc1cc(C)nc(C(C)C)n1` [diazoxon, reference compound], which “reactivity in inhibiting BChE, times less than CPO” value (BChE) is on record?
Answer: Its value is 20 times.

Question: What does the source list for `C[n+]1ccccc1/C=N/O` [pralidoxime]?
Answer: AChE reactivation (fraction of active enzyme from reactivatable pool) ([7]; patient A, continuous pralidoxime infusion given for 5 days): ~90%; kr, first-order reactivation rate constant [10]: 0.3 min⁻¹; Kd ([10]; read-out: KD, dissociation constant of the complex EPOx): 330 µM
